Laboratory results: PubChem BioAssay AID248 (DTP/NCI, 2004)
Where “and” joins values, the source holds several entries; their conditions need not be identical. Equal entries are not always repeated. Toxic doses and inconclusive results are not listed. Rule as the data show it: active = T/C of 150% or more; inactive = T/C below 125%.

Test system: L1210 leukemia ip in BDF1 mice, survival T/C
Assay: NCI In Vivo Anticancer Drug Screen. Data for tumor model L1210 Leukemia (intraperitoneal) in B6D2F1 (BDF1) mice
Settings: higher = longer survival
Procedure, shortened: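 Read-out is survival time, reported as the treated-group measurement over the vehicle-control measurement.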

Measured: T/C

O=c1[nH]cc(F)c(=O)[nH]1
inactive: endpoint: mean survival time, dose: 0.06 mg/kg/injection, schedule: Q#A X Z (ip), vehicle: carboxymethylcellulose (CMC) 103 % of control | endpoint: mean survival time, dose: 0.12 mg/kg/injection, schedule: Q#A X Z (ip), vehicle: carboxymethylcellulose (CMC) 108 % of control | endpoint: mean survival time, dose: 0.25 mg/kg/injection, schedule: Q#A X Z (ip), vehicle: carboxymethylcellulose (CMC) 106 % of control | endpoint: mean survival time, dose: 0.5 mg/kg/injection, schedule: Q#A X Z (ip), vehicle: carboxymethylcellulose (CMC) 112 % of control | endpoint: mean survival time, dose: 0.63 mg/kg/injection, schedule: Q01DX015 (ip), vehicle: water 100 % of control | endpoint: mean survival time, dose: 0.75 mg/kg/injection, schedule: Q03DX006 (ip), vehicle: carboxymethylcellulose (CMC) 105 % of control | endpoint: mean survival time, dose: 1.0 mg/kg/injection, schedule: Q01DX009 (ip), vehicle: other 105 % of control | endpoint: mean survival time, dose: 1.4 mg/kg/injection, schedule: Q01DX Z (ip), vehicle: saline 109 % of control | endpoint: mean survival time, dose: 2.0 mg/kg/injection, schedule: Q01DX005 (iv), vehicle: carboxymethylcellulose (CMC) 108 % of control | endpoint: mean survival time, dose: 2.0 mg/kg/injection, schedule: Q01DX Z (im), vehicle: carboxymethylcellulose (CMC) 108 % of control | endpoint: mean survival time, dose: 2.0 mg/kg/injection, schedule: Q01DX Z (ip), vehicle: carboxymethylcellulose (CMC) 108 % of control | endpoint: mean survival time, dose: 2.5 mg/kg/injection, schedule: Q01DX015 (ip), vehicle: water 107 % of control | endpoint: mean survival time, dose: 4.0 mg/kg/injection, schedule: Q01DX005 (iv), vehicle: carboxymethylcellulose (CMC) 111 % of control | endpoint: mean survival time, dose: 4.8 mg/kg/injection, schedule: Q04DX002 (ip), vehicle: saline 93 % of control and 101 % of control | endpoint: mean survival time, dose: 5.0 mg/kg/injection, schedule: Q01DX006 (ip), vehicle: saline 110 % of control | endpoint: mean survival time, dose: 5.0 mg/kg/injection, schedule: Q01DX010 (ip), vehicle: saline 107 % of control | endpoint: mean survival time, dose: 8.0 mg/kg/injection, schedule: Q01DX005 (iv), vehicle: carboxymethylcellulose (CMC) 108 % of control | endpoint: mean survival time, dose: 8.4 mg/kg/injection, schedule: Q01DX009 (ip), vehicle: saline 102 % of control | endpoint: mean survival time, dose: 8.4 mg/kg/injection, schedule: Q01DX Z (ip), vehicle: saline 102 % of control | endpoint: mean survival time, dose: 9.5 mg/kg/injection, schedule: Q04DX002 (ip), vehicle: saline 101 % of control and 102 % of control | endpoint: mean survival time, dose: 10.0 mg/kg/injection, schedule: Q01DX009 (oral), vehicle: saline 111 % of control | endpoint: mean survival time, dose: 12.5 mg/kg/injection, schedule: Q04DX003 (ip), vehicle: saline 98 % of control | endpoint: mean survival time, dose: 13.3 mg/kg/injection, schedule: Q04DX003 (ip), vehicle: saline 110 % of control | endpoint: mean survival time, dose: 16.0 mg/kg/injection, schedule: Q#A X Z (ip), vehicle: carboxymethylcellulose (CMC) 108 % of control | endpoint: mean survival time, dose: 19.0 mg/kg/injection, schedule: Q04DX002 (ip), vehicle: saline 101 % of control | endpoint: mean survival time, dose: 27.5 mg/kg/injection, schedule: Q01DX012 (sc), vehicle: other 110 % of control | endpoint: mean survival time, dose: 30.0 mg/kg/injection, schedule: Q01DX009 (ip), vehicle: none 109 % of control | endpoint: mean survival time, dose: 30.0 mg/kg/injection, schedule: Q01DX009 (ip), vehicle: saline 101 % of control and 109 % of control | endpoint: mean survival time, dose: 30.0 mg/kg/injection, schedule: Q01DX Z (ip), vehicle: saline 97 % of control | endpoint: mean survival time, dose: 30.0 mg/kg/injection, schedule: Q## X Z (ip), vehicle: saline 98 % of control | endpoint: mean survival time, dose: 39.0 mg/kg/injection, schedule: Q01DX009 (ip), vehicle: saline 109 % of control | endpoint: mean survival time, dose: 39.0 mg/kg/injection, schedule: Q01DX Z (ip), vehicle: saline 96 % of control and 109 % of control | endpoint: mean survival time, dose: 40.0 mg/kg/injection, schedule: Q01DX010 (ip), vehicle: saline 100 % of control | endpoint: mean survival time, dose: 40.0 mg/kg/injection, schedule: Q01DX Z (ip), vehicle: methylcellulose (MC) 103 % of control | endpoint: mean survival time, dose: 45.0 mg/kg/injection, schedule: Q## X006 (ip), vehicle: saline 95 % of control | endpoint: mean survival time, dose: 50.0 mg/kg/injection, schedule: Q01DX Z (ip), vehicle: methylcellulose (MC) 94 % of control | endpoint: mean survival time, dose: 52.0 mg/kg/injection, schedule: Q01DX009 (ip), vehicle: saline 111 % of control | endpoint: mean survival time, dose: 64.0 mg/kg/injection, schedule: Q01DX Z (im), vehicle: carboxymethylcellulose (CMC) 96 % of control | endpoint: mean survival time, dose: 64.0 mg/kg/injection, schedule: Q01DX Z (oral), vehicle: carboxymethylcellulose (CMC) 94 % of control | endpoint: mean survival time, dose: 64.0 mg/kg/injection, schedule: Q01DX Z (sc), vehicle: carboxymethylcellulose (CMC) 105 % of control | endpoint: mean survival time, dose: 65.0 mg/kg/injection, schedule: Q01DX009 (ip), vehicle: saline 93 % of control | endpoint: mean survival time, dose: 67.0 mg/kg/injection, schedule: Q02DX010 (ip), vehicle: other 102 % of control | endpoint: mean survival time, dose: 67.1 mg/kg/injection, schedule: Q01DX005 (sc), vehicle: other 100 % of control | endpoint: mean survival time, dose: 68.0 mg/kg/injection, schedule: Q02DX010 (ip), vehicle: carboxymethylcellulose (CMC) 108 % of control | endpoint: mean survival time, dose: 68.0 mg/kg/injection, schedule: Q02DX010 (ip), vehicle: other 98 % of control | endpoint: mean survival time, dose: 80.0 mg/kg/injection, schedule: Q01DX005 (ip), vehicle: Klucel (hydroxypropylcellulose) (HPC) 97 % of control | endpoint: mean survival time, dose: 80.0 mg/kg/injection, schedule: Q01DX005 (ip), vehicle: acetone 100 % of control | endpoint: mean survival time, dose: 80.0 mg/kg/injection, schedule: Q01DX005 (ip), vehicle: other 100 % of control | endpoint: mean survival time, dose: 80.0 mg/kg/injection, schedule: Q01DX006 (ip), vehicle: saline 103 % of control | endpoint: mean survival time, dose: 80.0 mg/kg/injection, schedule: Q01DX009 (ip), vehicle: none 93 % of control | endpoint: mean survival time, dose: 80.0 mg/kg/injection, schedule: Q01DX009 (ip), vehicle: water 95 % of control | endpoint: mean survival time, dose: 80.0 mg/kg/injection, schedule: Q01DX009 (oral), vehicle: saline 103 % of control | endpoint: mean survival time, dose: 80.0 mg/kg/injection, schedule: Q01DX015 (ip), vehicle: saline 110 % of control | endpoint: mean survival time, dose: 80.0 mg/kg/injection, schedule: Q02DX005 (ip), vehicle: water 108 % of control | endpoint: mean survival time, dose: 90.0 mg/kg/injection, schedule: Q04DX004 (ip), vehicle: saline 98 % of control | endpoint: mean survival time, dose: 94.5 mg/kg/injection, schedule: Q02DX010 (ip), vehicle: carboxymethylcellulose (CMC) 109 % of control | endpoint: mean survival time, dose: 101.0 mg/kg/injection, schedule: Q02DX010 (ip), vehicle: carboxymethylcellulose (CMC) 95 % of control | endpoint: mean survival time, dose: 120.0 mg/kg/injection, schedule: Q01DX006 (ip), vehicle: saline 98 % of control | endpoint: mean survival time, dose: 120.0 mg/kg/injection, schedule: Q04DX003 (ip), vehicle: saline with Tween-80 93 % of control and 96 % of control and 102 % of control | endpoint: mean survival time, dose: 120.0 mg/kg/injection, schedule: Q## X004 (ip), vehicle: water 105 % of control | endpoint: mean survival time, dose: 128.0 mg/kg/injection, schedule: Q01DX005 (iv), vehicle: carboxymethylcellulose (CMC) 109 % of control | endpoint: mean survival time, dose: 164.0 mg/kg/injection, schedule: Q01DX002 (sc), vehicle: other 95 % of control | endpoint: mean survival time, dose: 177.6 mg/kg/injection, schedule: Q01DX001 (ip), vehicle: carboxymethylcellulose (CMC) 111 % of control | endpoint: mean survival time, dose: 180.0 mg/kg/injection, schedule: Q## X004 (ip), vehicle: water 107 % of control | endpoint: mean survival time, dose: 200.0 mg/kg/injection, schedule: Q02DX005 (ip), vehicle: saline 96 % of control | endpoint: mean survival time, dose: 200.0 mg/kg/injection, schedule: Q04DX002 (ip), vehicle: saline 110 % of control | endpoint: mean survival time, dose: 256.0 mg/kg/injection, schedule: Q01DX001 (sc), vehicle: other 101 % of control | endpoint: mean survival time, dose: 256.0 mg/kg/injection, schedule: Q01DX005 (iv), vehicle: carboxymethylcellulose (CMC) 103 % of control | endpoint: mean survival time, dose: 300.0 mg/kg/injection, schedule: Q01DX001 (ip), vehicle: Klucel (hydroxypropylcellulose) (HPC) 104 % of control | endpoint: mean survival time, dose: 320.0 mg/kg/injection, schedule: Q01DX009 (ip), vehicle: saline 94 % of control | endpoint: mean survival time, dose: 400.0 mg/kg/injection, schedule: Q04DX003 (ip), vehicle: saline 97 % of control | endpoint: mean survival time, dose: 400.0 mg/kg/injection, schedule: Q## X004 (ip), vehicle: alkali diluted with saline 109 % of control | endpoint: mean survival time, dose: 600.0 mg/kg/injection, schedule: Q01DX001 (ip), vehicle: carboxymethylcellulose (CMC) 106 % of control | endpoint: mean survival time, dose: 900.0 mg/kg/injection, schedule: Q01DX001 (ip), vehicle: water 101 % of control | endpoint: mean survival time, dose: 900.0 mg/kg/injection, schedule: Q## X004 (ip), vehicle: alkali diluted with saline 104 % of control | endpoint: median survival time, dose: 4.0 mg/kg/injection, schedule: Q01DX009 (ip), vehicle: saline 98 % of control and 100 % of control | endpoint: median survival time, dose: 8.0 mg/kg/injection, schedule: Q01DX009 (ip), vehicle: saline 98 % of control and 100 % of control | endpoint: median survival time, dose: 16.0 mg/kg/injection, schedule: Q01DX009 (ip), vehicle: saline 100 % of control and 102 % of control | endpoint: median survival time, dose: 23.0 mg/kg/injection, schedule: Q04DX003 (oral), vehicle: saline 106 % of control | endpoint: median survival time, dose: 65.0 mg/kg/injection, schedule: Q01DX005 (ip), vehicle: saline 98 % of control | endpoint: median survival time, dose: 65.0 mg/kg/injection, schedule: Q01DX009 (ip), vehicle: saline 106 % of control | endpoint: median survival time, dose: 75.0 mg/kg/injection, schedule: Q01DX001 (ip), vehicle: saline 109 % of control | endpoint: median survival time, dose: 300.0 mg/kg/injection, schedule: Q01DX001 (ip), vehicle: alkali diluted with saline 97 % of control | endpoint: median survival time, dose: 300.0 mg/kg/injection, schedule: Q04DX003 (oral), vehicle: saline 102 % of control | endpoint: median survival time, dose: 300.0 mg/kg/injection, schedule: Q04DX003 (sc), vehicle: saline 105 % of control | endpoint: median survival time, dose: 500.0 mg/kg/injection, schedule: Q04DX003 (oral), vehicle: saline 108 % of control | endpoint: median survival time, dose: 600.0 mg/kg/injection, schedule: Q01DX001 (ip), vehicle: alkali diluted with saline 101 % of control
